Assay results reported in patent US10925921B2, “Fermented Pennisetum extract” (Sagittarius Life Science Corp., priority 2016, dated 2021).

Legend:
Format in all cases: in vivo, BALB/c nu/nu mice
[1] = tested on: human lung adenocarcinoma cell line, NCl-H441; assay: Tumor growth assay in orthotopic lung model, IVIS bioluminescence; conditions: docetaxel 2.5 mg/kg, from the fourth week
Procedure: FIGS. 3(A) and (B) show the inhibitory effect of PPE on tumor growth of orthotropic lung tumor-bearing BALB/c nude mice. H441-luc were orthotopically injected into the lung of mice at a concentration of 0.8×10^6 cells/70 μL PBS. PPE treatments (three dosages 25, 50, and […].) twice a week by intraperitoneal injection into tumor-bearing animals over a period of 4 weeks. (A) Representative non-invasive bioluminescence images show tumor progression of mice in orthtopic model. (B) Bar graphs were quantified by Living Image analysis software (n=8-10). Data were analyzed by Student's t-test and are shown as mean±SD*P<0.05 compared with control. § P<0.05 compared with week 4 tumor group;
Male BALB/c nu/nu mice were used in the orthotopic model and divided into five groups, control group (5 mice), tumor group (10 mice), three experimental groups (25-PPE, 50-PPE and 100-PPE) (each group for 10 mice) and docetaxel group (8 mice). […]
The mice were injected with the cell solution of human lung adenocarcinoma cell line, NCl-H441, in matrigel (0.8×10^6 cells/70 μL/mice). […] The tumor growth was monitored by Non Invasion In Vivo Imaging System (IVIS).

[2] = tested on: human lung adenocarcinoma cell line, NCl-H441; assay: Survival (Kaplan-Meier) in orthotopic lung tumor-bearing mice; conditions: docetaxel 2.5 mg/kg b.w., orthotopic model
Procedure: Male BALB/c nu/nu mice were used in the orthotopic model and divided into five groups, control group (5 mice), tumor group (10 mice), three experimental groups (25-PPE, 50-PPE and 100-PPE) (each group for 10 mice) and docetaxel group (8 mice). The mice of the control group and the tumor group were subjected to intraperitoneal injection (i.p.) with vehicle, while 10 mice of each of the experimental groups, 25-PPE group (25 mg/kg of PPE), 50-PPE group (50 mg/kg of PPE) and 100-PPE group (100 mg/kg of PPE), were i.p. administered with 25 mg/kg of PPE, 50 mg/kg of PPE and 100 mg/kg of PPE obtained in Example 1, respectively, and 8 mice of the docetaxel group were administered with 2.5 mg/kg of docetaxel.
The mice were injected with the cell solution of human lung adenocarcinoma cell line, NCl-H441, in matrigel (0.8×10^6 cells/70 μL/mice). Three days after injections, the PPEs at the above-mentioned doses were i.p. administered to the mice twice every two weeks. The tumor growth was monitored by Non Invasion In Vivo Imaging System (IVIS).

[3] = tested on: human lung adenocarcinoma cell line, NCl-H441; assay: Computed tomography (CT) lung screening assay in orthotopic model; conditions: docetaxel 2.5 mg/kg, fourth week; tumor group 11.1+/−2.8%
Excerpt: FIGS. 5(A) and (B) show the inhibitory effects of PPE on analysis of tumor volume in orthotopic model. (A) The micro-CT images and quantitative end-points for lung tumor growth. Longitudinal and transverse micro-CT images of tumor growth in control and treatment of PPE. Each tumor scanned by micro-CT was reconstructed to three-dimensional images (axial, sagittal, and coronal), and diameters measured periodically as indicated. Data represent presence of tumor value in each group. (B) The tissue of lung lesions in nude mice. Representative lung tumor formed in different group. Tumors observed in the lungs are indicated with a yellow arrow;
In the orthotopic model of Example 3, the mice were subjected to CT lung screening to detect the tumor size in lung at the fourth week. The tumor accounts for 11.1+/−2.8% of the lung in the tumor group, 10.1+/−3.9% in the 25-PPE group, 9.3+/−1.4% in the 50-PPE group, 7.5+/−2.3% in the 100-PPE group and 8.0+/−1.1% in the docetaxel group (see FIG. 5).

SMILES: CC(=O)O[C@@]12CO[C@@H]1C[C@H](O)[C@@]1(C)C(=O)[C@H](O)C3=C(C)[C@@H](OC(=O)[C@H](O)[C@@H](NC(=O)OC(C)(C)C)c4ccccc4)C[C@@](O)([C@@H](OC(=O)c4ccccc4)[C@H]21)C3(C)C [docetaxel]
- tumor bioluminescence (IVIS) [1]: 0.5+/−0.07×10^7 photons/sec
- lifespan, Kaplan-Meier cumulative survival analysis [2]: significant (p<0.05) increase in lifespan
- tumor share of the lung (CT tumor volume ratio) [3]: 8.0+/−1.1%
